The values that follow come from PMC6017257, “Towards a Novel Class of Multitarget-Directed Ligands: Dual P2X7–NMDA Receptor Antagonists” (Molecules : A Journal of Synthetic Chemistry and Natural …, 2018).

Read-outs that look alike come from different tables or passages of the source.

The subject of one series is NMDA receptors. The experiment in a line: Inhibition of NMDA-evoked increase in intracellular calcium in rat cultured cerebellar granule neurons. It counts as cell-based. As to conditions: for % inhibition: relative to maximum intracellular calcium stimulated by 100 µM NMDA with 10 µM glycine. As to the method: Additionally, to evaluate whether the synthesized compounds were able to antagonize the NMDA receptors, we measured their effects on the increase in intracellular calcium evoked by NMDA (100 μM, in the presence of 10 μM of glycine) on rat-cultured cerebellar granule neurons.
The functional assay of antagonist activity at the NMDA receptors was performed using primary cultures of rat cerebellar granule neurons that were prepared according to established protocols. Cells were grown on 10 mm poly-L-lysine coated glass cover slips, and used for the experiments after 6–9 days in vitro. Cells were loaded with 6 µM Fura-2 AM (ThermoFisher Scientific-Molecular Probes) for 30 min. Afterwards, the coverslip was mounted on a quartz cuvette containing a Locke-Hepes buffer using a special holder. Measurements were performed using a PerkinElmer LS-55 fluorescence spectrometer (Waltham, MA, USA) equipped with a fast-filter accessory, under mild agitation and at 37 °C. Analysis of each sample was recorded in real time for 1600 s. After stimulation with NMDA (100 µM, in the presence of 10 µM glycine), increasing cumulative concentrations of the compound to be tested were added. The percentages of inhibition at every tested concentration were analyzed using a non-linear regression curve fitting analysis by using the software GraphPad Prism 5.0 (GraphPad Software Inc., La Jolla, CA, USA).
Table S1. NMDA antagonist activity in rat cerebellar granule cells. […]
aPercentage inhibition values at 100 µM (left) and 300 μM (right) were expressed as percentages, relative to maximum intracellular calcium concentration stimulated by 100 µM NMDA in the presence of 10 µM of glycine. All experiments were repeated at least three times. bIC50 value was obtained from concentration response curves.
In general terms: Calcium assays in cells follow changes in intracellular calcium, usually with a dye or a luminescent sensor.

Another series deals with T1, human P2X7 receptor (Homo sapiens, UniProt Q99572).
T1 construct: expressed in transfected cells; host or cells: HEK293
T1 sequence (Q99572 1-595): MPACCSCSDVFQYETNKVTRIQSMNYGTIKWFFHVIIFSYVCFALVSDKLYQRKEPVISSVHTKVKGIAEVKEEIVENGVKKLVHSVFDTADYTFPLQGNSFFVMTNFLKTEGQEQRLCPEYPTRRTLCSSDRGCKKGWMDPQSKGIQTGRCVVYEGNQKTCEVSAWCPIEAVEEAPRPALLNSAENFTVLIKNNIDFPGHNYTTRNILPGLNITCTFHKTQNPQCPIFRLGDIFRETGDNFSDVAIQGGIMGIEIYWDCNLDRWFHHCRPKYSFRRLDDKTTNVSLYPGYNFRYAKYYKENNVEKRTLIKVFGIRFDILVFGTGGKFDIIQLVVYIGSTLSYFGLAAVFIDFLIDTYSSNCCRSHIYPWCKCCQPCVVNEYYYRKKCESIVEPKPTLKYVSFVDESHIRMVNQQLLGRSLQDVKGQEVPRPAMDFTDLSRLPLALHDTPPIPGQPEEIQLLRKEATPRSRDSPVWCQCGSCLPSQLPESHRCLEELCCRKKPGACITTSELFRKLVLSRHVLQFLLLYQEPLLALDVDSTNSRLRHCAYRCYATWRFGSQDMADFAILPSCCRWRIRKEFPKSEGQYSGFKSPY
Kind of series: BzATP-induced ethidium bromide uptake (dye uptake) in hP2X7-expressing HEK293 cells. As to conditions: for inhibition at 1 µM / inhibition at 10 µM: P2X7, relative to maximum ethidium bromide uptake stimulated by BzATP 6 µM; for inhibition at 1 µM: at 1 μM (right value); for inhibition at 10 µM: at 10 µM (left value); for IC50: ethidium bromide accumulation stimulated by BzATP 6 µM, hP2X7-expressing HEK293 cells, from concentration-response curves. It counts as cell-based. On the procedure:
All new compounds were evaluated for their antagonistic effects on 2’(3’)-O-(4-benzoylbenzoyl)-ATP (BzATP)-induced ethidium bromide uptake in human embryonic kidney 293 (HEK 293) cells, stably expressing the human P2X7 receptor, using P2X7 receptor antagonist AZD9056—AstraZeneca’s clinical drug candidate [46]—as a positive control. […] However, taking into account that we wanted to design a compound endowed with low micromolar inhibitory potencies against both the P2X7 and NMDA receptors, compound 9g suited our purpose.
HEK293 cells stably expressing the P2X7 receptor were maintained in Dulbecco's modified Eagle's medium (DMEM) supplemented with 10% fetal bovine serum (FBS), 2 mM L-glutamine, and antibiotics (50 U/mL penicillin and […] streptomycin) in a humidified 5% CO2 atmosphere at 37 °C. We used Lipofectamine as a transfection reagent with a pcDNA3.1 vector-based plasmid harbouring hP2X7R (Invitrogen, Waltham, MA, USA). After diluting to 2.5 × 10^6 cells/mL, a buffer composed of 10 mM HEPES, 5 mM N-methyl-D-glutamine, 5.6 mM KCl, 10 mM D-glucose, and 0.5 mM CaCl2 (pH 7.4), supplemented with either 280 mM sucrose or 140 mM NaCl and an 80 μL aliquot, was added to each well of 96-well culture plates. The test compounds and 2(3’)-O-(4-benzoylbenzoyl)-ATP (BzATP) were then added, and the cells were incubated for 2 h in a humidified 5% CO2 atmosphere at 37 °C. After incubation, a Bio-Tek FL600 fluorescence plate reader (Winooski, VT, USA) was used to measure the […] at an excitation wavelength of 530 nm and an emission wavelength of 590 nm. The inhibition (percent) of ethidium ion uptake was expressed as a relative value of the maximum accumulation when stimulated with BzATP only. To calculate IC50 values, we calculated a series of dose–response data using nonlinear regression analysis (i.e., percentage accumulation of ethidium bromide vs compound concentration). The concentration of ethidium bromide was 0.1 mM.

For series [1], the system named is hP2X7. The arrangement: method as in PMID 22400713. As to conditions: read-out: P2X7R antagonist IC50; cited from earlier work.
Series [2] has as its system hP2X7. Also on record: method as in PMID 18438986. As to conditions: read-out: P2X7R antagonist activity IC50; cited from earlier work.
In another series the test system is NMDAR. As to conditions: cited from earlier work.

What is called % inhibition is the percentage by which the read-out fell short of the control. What is called melting point is the temperature of the solid-liquid transition. A word on the inhibition: it is the share of the control response that was lost under treatment. Lower therefore signals a response near the control. With `NC12CC3CC(C1)CC(C(=O)NNc1c(Cl)cncc1Cl)(C3)C2` [Compound 9e, 3-Amino-N'-(3,5-dichloropyridin-4-yl)adamantane-1-carbohydrazide], the melting point lay in the range of 191 to 192 °C. Further, the “% inhibition” value in the series on NMDA receptors (at 100 µM (left value)) came out at 6%. In the series on NMDA receptors (at 300 μM (right value)), the “% inhibition” value was 16%. Also, at human P2X7 receptor, the inhibition at 1 µM amounted to 27% and 10 µM produced 53% inhibition.
Compound `NC12CC3CC(C1)CC(C(=O)NNc1ccc(C(F)(F)F)cc1Cl)(C3)C2` [Compound 9d, 3-Amino-N'-[2-chloro-4-(trifluoromethyl)phenyl]adamantane-1-carbohydrazide] returned a melting point of 185 to 186 °C. Besides, the “% inhibition” value in the series on NMDA receptors (at 100 µM (left value)) is on record as 20%. At human P2X7 receptor, this compound came in with an inhibition at 1 µM of 21% and an inhibition at 10 µM of 24%.
The IC50 is the concentration that inhibits the measured activity by half. Regarding `NC12CC3CC(C1)CC(C(=O)NNc1ccccc1Cl)(C3)C2` [Compound 9g, 3-Amino-N'-(2-chlorophenyl)adamantane-1-carbohydrazide], the melting point was in the range of 220 to 222 °C. For the same compound, the IC50 in the series with NMDA receptors (NMDA 100 μM with 10 μM glycine, rat cerebellar granule neurons, read-out: IC50 (NMDA receptor)) was 468 ± 23 µM. Further, in the series with NMDA receptors (rat cerebellar granule neurons), the “NMDA receptor inhibition (in words)” value is reported as “some activity as an NMDA receptor antagonist”. Also, the IC50 against human P2X7 receptor is 6 ± 0.6 µM.
`NC12CC3CC(C1)CC(C(=O)NNc1ccccc1C(F)(F)F)(C3)C2` [Compound 9a, 3-Amino-N'-[2-(trifluoromethyl)phenyl]adamantane-1-carbohydrazide] returned a melting point of 213 to 216 °C. The “% inhibition” value with NMDA receptors (at 100 µM (left value)) came out at 5%. Further, in the series on NMDA receptors (at 300 μM (right value)), the “% inhibition” value amounted to 14%. At human P2X7 receptor, the inhibition at 1 µM came to 37% and the inhibition at 10 µM was found to be 48%.
The matching figures for `NC12CC3CC(C1)CC(C(=O)NNc1cccc(Cl)c1Cl)(C3)C2` [Compound 9c, 3-Amino-N'-(2,3-dichlorophenyl)adamantane-1-carbohydrazide]: 215 to 219 °C, 23%, 30%, 17% and 42%.
Consider `CC12CC3CC(C)(C1)CC(C(=O)NNc1c(Cl)cncc1Cl)(C3)C2` [Compound 3], for which the IC50 in the series on hP2X7 [1] was 0.013 ± 0.001 µM.
Turning to `CC12CC3(C)CC(N)(C1)CC(C(=O)NNc1ccccc1Cl)(C2)C3` [Compound 15b, 3-Amino-N'-(2-chlorophenyl)-5,7-dimethyladamantane-1-carbohydrazide], the melting point is 280 to 282 °C. For the same compound, the “% inhibition” value with NMDA receptors (at 100 µM (left value)) amounted to 7%. Besides, in the series on NMDA receptors (at 300 μM (right value)), the “% inhibition” value is recorded as 8%. Moreover, in the series on NMDA receptors (rat cerebellar granule neurons), the “NMDA receptor inhibition (in words)” value is recorded as “unable to significantly inhibit the NMDA receptor even at millimolar concentrations”. The compound further registered an IC50 on human P2X7 receptor of 16.1 ± 1.6 µM.
Compound `NC12CC3CC(C1)CC(C(=O)NNc1cccc(Cl)c1F)(C3)C2` [Compound 9f, 3-Amino-N'-(3-chloro-2-fluorophenyl)adamantane-1-carbohydrazide] returned a melting point of 200 to 202 °C. The “% inhibition” value in the series with NMDA receptors (at 100 µM (left value)) worked out at 11%. Moreover, the “% inhibition” value in the series with NMDA receptors (at 300 μM (right value)) was found to be 18%. At human P2X7 receptor, this compound displayed an inhibition at 1 µM of 17% and an inhibition at 10 µM of 15%.
As to `CC12CC3(C)CC(N)(C1)CC(C(=O)NNc1c(Cl)cncc1Cl)(C2)C3` [Compound 15a, 3-Amino-N'-(3,5-dichloropyridin-4-yl)-5,7-dimethyladamantane-1-carbohydrazide], the melting point was 300 to 302 °C. The “% inhibition” value in the series with NMDA receptors (at 100 µM (left value)) was found to be 20%. For the same compound, the “% inhibition” value in the series on NMDA receptors (at 300 μM (right value)) was 31%. For the same compound, the “NMDA receptor inhibition (in words)” value in the series with NMDA receptors (rat cerebellar granule neurons) is given as “unable to significantly inhibit the NMDA receptor even at millimolar concentrations”. On human P2X7 receptor, it took 9.9 ± 0.7 µM to reach half-maximal inhibition (IC50).
In the case of `O=C(NNc1ccccc1Cl)C12CC3CC(CC(O)(C3)C1)C2` [Compound 1b], the IC50 in the series with hP2X7 [2] was 0.275 ± 0.05 µM.
In turn, `NC12CC3CC(C1)CC(C(=O)NCc1ccccc1Cl)(C3)C2` [Compound 2, 3-Amino-N-(2-chlorobenzyl)adamantane-1-carboxamide] returned a melting point of 186 to 189 °C. Further, the “% inhibition” value with NMDA receptors (at 100 µM (left value)) came out at 18%. In addition, in the series with NMDA receptors (at 300 μM (right value)), the “% inhibition” value came to 30%.
Turning to `O=C(NNc1ccccc1Cl)C12CC3CC(CC(C3)C1)C2` [Compound 1a], the IC50 with hP2X7 [2] is 0.0116 ± 0.002 µM.
Regarding `O=C(NCC12CC3CC(CC(C3)C1)C2)c1cc(CCCNCCCO)ccc1Cl` [AZD9056, reference compound], on human P2X7 receptor, the IC50 stood at 0.0041 ± 0.0007 µM.
As for `NC12CC3CC(C1)CC(C(=O)NNc1c(Cl)cccc1Cl)(C3)C2` [Compound 9b, 3-Amino-N'-(2,6-dichlorophenyl)adamantane-1-carbohydrazide], the melting point was in the range of 153 to 156 °C. Besides, the “% inhibition” value in the series with NMDA receptors (at 100 µM (left value)) was 17%. For the same compound, the “% inhibition” value with NMDA receptors (at 300 μM (right value)) is recorded as 38%. For the same compound, at human P2X7 receptor, 1 µM produced 16% inhibition and 10 µM produced 23% inhibition.
Consider `CC12CC3CC(C)(C1)CC(N)(C3)C2` [memantine], for which, in the series on NMDAR, the “fold more potent as an NMDA inhibitor than amantadine” value is 60 fold.
For the compound `NC12CC3CC(CC(C3)C1)C2` [amantadine], in the series on NMDAR (amantadine, read-out: NMDAR antagonist IC50), the IC50 was 92 ± 29 µM.
